Laboratory results as given in US20090291857A1, “METHODS TO IDENTIFY INHIBITORS OF THE UNFOLDED PROTEIN RESPONSE” (THE BOARD OF TRUSTEES OF THE LELAND STANFORD JUNIOR …, priority 2006, published 2009).

Legend:
[1] = test system: XBP-1s (5X-UPRE); experiment: 5X-UPRE luciferase reporter assay; assay type: cell-based, human
Method: HT1080 cells stably expressing the XBP-luciferase construct were grown in 60 mm dishes to 60-70% confluency. Following hypoxia treatment, cells were washed twice with PBS, lysed in 400 μl 1× reporter lysis buffer (RLB) (Promega, Madison Wis.) for 30 min at 24° C. Lysates (100 μl) were mixed with an equal volume of luciferase substrate (Promega), and assayed using a luminometer. For 5×-UPRE-luciferase reporter assays, cells were co-transfected with the appropriate reporter plasmid and a control plasmid (pSV40-beta-gal) using Lipofectamine 2000 (Invitrogen, San Diego, Calif.). Twenty-four hours after transfection, fresh media was added, and cells were treated with Tm or shifted to hypoxia. After treatment, cells were lysed in 1× RLB and analyzed for luciferase activity as described above. Beta-galactosidase activity was determined using the beta-galactosidase enzyme assay system (Promega).
A. XBP-luciferase reporter construct. […] After 24 hours, luciferase activity was analyzed in an automated plate reader. For each cell line, values are expressed as the percent inhibition of the median for Tm/Tg-treated wells, corrected for background. […] Values are expressed as the fold increases over uninduced levels. […] Cells were harvested, lysed, and analyzed by immunoblotting with antisera specific for HIF-1α (top), XBP-1s (middle) or actin (bottom). […]

[2] = test system: HT1080 fibrosarcoma; experiment: Cell proliferation assay, HT1080; assay type: cell-based, human; settings: same concentrations
Method: A. Effect of irestatin 9389 on PERK and ATF6 pathways. HT1080 cells were treated with vehicle alone (lanes 1-4) or 2.5 μM irestatin 9389 (lanes 5-8) and cultured under aerobic conditions for 18 hours (N) or shifted to hypoxia for the indicated times. Protein lysates were analyzed by Western blot analysis using antisera specific for ATF6 (top), CHOP/GADD153 (middle) or actin (bottom). Arrow indicates the cleaved, transcriptionally active form of ATF6. B. Cleavage of caspase-3 in irestatin-treated cells under hypoxia. HT1080 cells were cultured in normoxia (N) or under hypoxia for 36 hours (H 36) in absence or presence of irestatin 9389 (2.5 μM). Arrows indicate proteolytically cleaved caspase-3. C. Colony formation assay. HT1080 cells were treated as in B under normoxia (N) or hypoxia for 48 hours (H 48). Cells were harvested, counted, and allowed to grow under normal culture conditions for 11-12 days. Colonies were visualized with crystal violet staining. D. Quantification of clonogenic survival assay. Values represent the mean+/−SEM from at least 4 independent experiments. E. TUNEL staining of cells treated as in C. F. Quantification of TUNEL-positive cells. Values represent the mean+/−SEM from at least 3 experiments. […] Cells were harvested at the indicated times and counted by hemocytometer. Values represent the mean calculated from triplicate experiments +/−SEM. […]

Cc1csc(NC(=O)CSc2nc3c(c(C(F)(F)F)c2C#N)CCC3)n1 [Compound 9389]
diminution of 5X-UPRE luciferase response under hypoxia ([1]; 48 hours of hypoxia, vehicle 170-fold): more than 90%
5X-UPRE luciferase induction over untreated cells ([1]; Tm plus irestatin, Tm alone ~12-fold): < 4 fold
growth rate of HT1080 cells under normal conditions [2]: negligible effect
